Measured values reported in PubChem BioAssay (NCI).
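Interpolation was linear, between the two tested concentrations surrounding the appropriate level; five concentrations were tested over 48 hours in 96-well plates. At the GI50, growth is halved. The concentration for full growth arrest is given as TGI.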

Tests used:
Experiment in all cases: inhibition of tumour cell growth, NCI panel, 48 h
[1] = tested on: CAKI-1 renal
[2] = tested on: DLD-1 colon
[3] = tested on: HOP-18 NSCLC
[4] = tested on: LOX IMVI melanoma
[5] = tested on: XF 498 CNS
[6] = tested on: DU-145 prostate
[7] = tested on: MDA-MB-231 breast
[8] = tested on: MDA-MB-435
[9] = tested on: MDA-N
[10] = tested on: PC-3 prostate
[11] = tested on: SR leukemia
[12] = tested on: DMS 114 small cell lung
[13] = tested on: LXFL 529 NSCLC

Row | Structure (SMILES) | TGI [1] [µM] | TGI [2] [µM] | TGI [3] [µM] | TGI [4] [µM] | TGI [6] [µM] | TGI [7] [µM] | TGI [8] [µM] | TGI [9] [µM] | TGI [10] [µM] | TGI [11] [µM] | further results
1 | NC(=S)N/N=C/c1ccc(OC(=O)COc2ccccc2Cl)cn1 | > 100 | > 100 | > 100 | > 100 |  |  |  |  |  |  | TGI [5]: > 92 µM
2 | CCOC(=O)Oc1ccc2c(c1)c(=O)c1c(NCCCN(CC)CC)ccc3nnn2c31 | 9.75 |  |  | 12 | 17.4 | 21.8 | 18.3 | 20.6 | 20.9 | > 53 | 
3 | C/C([O-])=C(/c1nc(-c2ccc([N+](=O)[O-])o2)no1)[n+]1cc(C)ccc1C | 28.7 | 24.7 | 21.8 | 21.8 |  |  |  |  |  |  | TGI [12]: 38.9 µM; TGI [5]: 21.1 µM
4 | Cc1nc(N(CCO)CCO)c2sc(=S)n(-c3ccccc3)c2n1 |  | > 100 | > 100 |  |  |  |  |  |  | > 100 | TGI [13]: > 100 µM
5 | COc1cc(Cc2ccc3c(c2C#N)N(C)c2ccccc2S3)cc(OC)c1OC |  | > 100 | > 100 | > 100 |  |  |  |  |  | > 100 | TGI [12]: > 100 µM; TGI [13]: > 100 µM; TGI [5]: > 100 µM
6 | C/C(=N\NC(=S)Nc1ccc(Cl)cc1)c1nc2ncccc2[nH]1 | 33.2 |  |  | 13.1 | 14.1 | > 100 | 15.1 | 23.1 | 17.4 | > 100 | 
7 | COc1cc(C2S/C(=C/c3ccccc3)C(=O)N2c2ccccc2Cl)cc(OC)c1OC (configuration not stated) | > 100 |  |  | 44.9 |  | 67.3 | 56.7 | 84.6 | 58.2 |  | 
8 | Cc1ccc(S(=O)(=O)Nc2cc(Sc3ccccc3)c(O)c3ccccc23)cc1 | 9.19 |  |  | 7.96 | 13.6 | 6.16 | 3.26 |  | 9.29 | 12.6 | GI50 [1]: 3.16 µM; GI50 [6]: 3.83 µM; GI50 [4]: 2.34 µM; GI50 [7]: 2.43 µM; GI50 [8]: 1.8 µM; GI50 [10]: 2.2 µM; GI50 [11]: 3.27 µM
9 | COC(=O)C1=C(O)C(C(=O)OC)[C@@]2(O)[C@@H](C(=O)OC)CC[C@@H]1[C@@H]2C(=O)OC (some centres not stated) |  |  |  | 76.8 | > 100 | 83.5 | > 100 |  |  | 63.9 | 
10 | Cc1ncc(CO)c(C=NCCCCCCN=Cc2c(CO)cnc(C)c2O)c1O | > 100 |  |  | > 100 | > 100 | > 100 | > 100 | > 100 | > 100 | > 100 | 
11 | CCOC(=O)C(=O)Nc1cccc(C)c1C | > 100 | > 100 | > 100 |  |  |  |  |  |  | > 100 | TGI [12]: > 100 µM; TGI [13]: > 100 µM; TGI [5]: > 100 µM
12 | O=c1oc2c(ccc3c(O)cccc32)c2c1CCCC2 | > 100 |  |  | > 100 | > 100 | 47.1 | > 100 | > 100 | > 100 | > 100 | 
13 | CCOC(=O)/C(=N/Nc1ccc(Cl)cc1)N1C(=S)C=C(C)NN(C)C1=S | > 100 |  |  |  | > 100 | > 100 | > 100 |  |  | > 100 | 
14 | O=C(O)CN=c1c2ccccc2n(O)c2ccccc12 | > 100 | > 100 | > 100 | > 100 |  |  |  |  |  |  | TGI [12]: > 100 µM; TGI [13]: > 100 µM
